Laboratory results from PubChem BioAssay AID2738 (Broad Institute, 2010).
pIC50: −log10 of the molar value. Active and inactive are the calls of the source.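 How the source made its calls: active means IC50 at or below ten times the top tested concentration; inconclusive means flat fit at 30 to 70% inhibition, or invalid poor fit; inactive means IC50 beyond ten times the top tested dose.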

Target: POS-1 (Caenorhabditis elegans) binding to mex-3 RNA
Assay: inhibitors of POS-1/mex-3 RNA binding, dose response, biochemical, fluorescence polarization, up to 135 µM (AID 2738)
Conditions: POS-1-MBP / FITC mex-3 RNA

| SMILES | pIC50 | IC50 |
| --- | --- | --- |
| O=C(NNC(=O)c1ccccc1[N+](=O)[O-])c1csc(N2CCOCC2)n1 | 3.92 |  |
| NC(CO)C(=O)NNCc1ccc(O)c(O)c1O (stereo not given) |  | > 135 µM (inactive) |
| COc1ccc(-c2cn[nH]c2-c2ccc(OCC(=O)NN)cc2O)cc1OC |  | > 135 µM (inactive) |
| O=c1c(O)cccc2cc(O)c(O)c(O)c12 | 4.92 |  |
| CCN(CC)c1ccc(/C=C2\C(=O)NC(=S)N(C)C2=O)o1 |  | > 135 µM (inactive) |
| N=c1c(C(=O)NC2CCCCC2)cc2c(=O)n3ccccc3nc2n1Cc1cccnc1 |  | > 350 µM (inactive) |
| CCN(CC)CCCNC(=O)CCC(=O)NNc1nc2ccccc2c2nc(C)nn12 | 5.66 |  |
| ON=C1/C(=N\O)CC2(C/C1=N/O)OCCO2 |  | > 135 µM (inactive) |
| Cn1ncc2c(NNC(=O)Cc3ccccc3)ncnc21 | 3.90 |  |
| COCCCNC(=O)CCC(=O)NNc1nc2ccccc2c2nc(C)nn12 | 5.07 |  |
| Oc1ccc(CCNc2c3ccccc3nc3ccccc23)cc1O |  | > 135 µM (inactive) |
| Cc1ccc(N2C(=O)NC(=O)/C(=C\c3cc(C)n(-c4ccc(C(=O)O)cc4)c3C)C2=O)cc1 |  | > 135 µM (inactive) |
| CCN(CC)c1ccc(/C=C2\C(=O)NC(=S)N(c3ccc(OC)cc3OC)C2=O)o1 |  | > 135 µM (inactive) |
| CC1=C(C(=O)OCc2ccccc2)C(c2ccccc2[N+](=O)[O-])NC(=O)N1C (stereo not given) | 4.59 |  |
| Cc1nc2ccccc2c(=O)n1/N=C/c1ccc(O)c(O)c1O | 4.77 |  |
| CCCCN(C)C(=O)CCC(=O)NNc1nc2ccccc2c2nc(C)nn12 | 4.21 |  |
| O=CN/N=C/c1c(O)ccc2ccccc12 | 4.66 |  |
| CCOC(=O)c1cc(CC)sc1/N=C/c1c(O)[nH]c(=S)[nH]c1=O | 4.34 |  |
| CCc1ccccc1N1C(=O)/C(=C\c2ccc(N3CCN(C)CC3)o2)C(=O)NC1=S |  | > 135 µM (inactive) |
| Cc1ncc(CO)c(/C=N/NC(=O)c2cc(Br)ccc2O)c1O | 4.29 |  |
